According to US9427415B2, “Methods and compositions for modifying sensorial perception” (The Procter & Gamble Company, priority 2014, dated 2016):
Read-outs that look alike come from different tables or passages of the source.

Assays:
human TRPA1 = molecular target: T1, human TRPA1 (Homo sapiens, UniProt O75762, K186N/R3C/R58T); assay: Intracellular calcium (Fluo-4, FLIPR) activation of TRPA1 cells by GRAS compounds; type: cell-based; conditions: relative to AITC 30 μM; for activation at 1000 µM: 1 mM; for activation at 1000 µM / activation at 100 µM: read-out: A1 activation, % of agonist value;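 for all read-outs here: TRPA1-expressing cells, fluorescence read on a FLIPR Tetra (ex 488 nm, em 514 nm) every 2 s for 10 min after compound addition, baseline subtracted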
T1 construct: expressed in transfected cells; pcDNA3 control cells

human TRPV1 = molecular target: T2, human TRPV1 (Homo sapiens, UniProt Q8NER1, M315I/T336M); assay: Intracellular calcium (Fluo-4, FLIPR) activation of TRPV1 cells by GRAS compounds; type: cell-based; conditions: for activation at 1000 µM: 1 mM; for activation at 1000 µM / activation at 100 µM: read-out: V1 activation, % of agonist value; for TRPV1 activation selectivity, in words: statement in description, see Table 1(i);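 for all read-outs here: TRPV1-expressing cells, FLIPR fluorescence at 488/514 nm with baseline subtracted, sampled every 2 s for 10 min after adding compound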
T2 construct: expressed in transfected cells; pcDNA3 control cells

TRPA1V1 = assay: Intracellular calcium (Fluo-4, FLIPR) activation of TRPA1V1 cells (co-expressing TRPA1 and TRPV1) by GRAS compounds; type: cell-based, human;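 note: HEK293 cells co-expressing TRPA1 and TRPV1, fluorescence read at 488/514 nm after baseline subtraction, recorded every 2 s over 10 min, ionomycin 10 µM and buffer as controls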
[1] = Table 1(a), average of three plates
[2] = Table 1(a), relative to capsaicin 350 nM, average of three plates
[3] = Table 1(a), 1 mM, relative to AITC 30 μM, average of three plates
[4] = Table 1(d), 100 μM (*), relative to AITC 30 μM
[5] = Table 1(i), 100 μM (*), relative to capsaicin 350 nM, […]
[6] = Table 1(i), 100 μM (*), relative to AITC 30 μM or capsaicin 350 nM depending on compound, […]
[7] = Table 1(b), relative to capsaicin 350 nM
[8] = Table 1(b), 1 mM, relative to AITC 30 μM
[9] = Table 1(a), 100 μM (*), relative to capsaicin 350 nM
[10] = Table 1(a), 100 μM (*), relative to AITC 30 μM

T2 sequence (Q8NER1 whole entry M315I/T336M): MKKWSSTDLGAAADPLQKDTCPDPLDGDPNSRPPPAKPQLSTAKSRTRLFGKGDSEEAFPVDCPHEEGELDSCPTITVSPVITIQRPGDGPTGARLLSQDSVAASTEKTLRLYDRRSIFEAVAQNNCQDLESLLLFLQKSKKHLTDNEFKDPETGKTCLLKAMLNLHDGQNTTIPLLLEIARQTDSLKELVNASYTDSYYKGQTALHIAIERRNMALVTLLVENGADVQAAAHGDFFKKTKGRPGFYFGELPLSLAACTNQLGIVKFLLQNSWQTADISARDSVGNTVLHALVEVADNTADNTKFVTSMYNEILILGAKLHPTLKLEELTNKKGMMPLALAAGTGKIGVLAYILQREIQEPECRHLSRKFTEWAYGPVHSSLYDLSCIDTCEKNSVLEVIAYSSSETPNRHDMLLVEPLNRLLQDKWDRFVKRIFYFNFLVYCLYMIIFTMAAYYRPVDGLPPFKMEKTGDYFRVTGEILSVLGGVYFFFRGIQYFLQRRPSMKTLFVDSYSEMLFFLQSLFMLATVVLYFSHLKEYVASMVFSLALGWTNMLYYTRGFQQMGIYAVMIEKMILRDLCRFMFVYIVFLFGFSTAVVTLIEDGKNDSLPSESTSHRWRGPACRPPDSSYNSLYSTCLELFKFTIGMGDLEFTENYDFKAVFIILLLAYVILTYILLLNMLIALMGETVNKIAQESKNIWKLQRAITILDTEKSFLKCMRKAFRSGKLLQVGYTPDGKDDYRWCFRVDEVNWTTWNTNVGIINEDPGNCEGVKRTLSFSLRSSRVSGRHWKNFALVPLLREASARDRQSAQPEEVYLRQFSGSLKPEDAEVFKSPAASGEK
T1 sequence (O75762 whole entry R3C/R58T/K186N): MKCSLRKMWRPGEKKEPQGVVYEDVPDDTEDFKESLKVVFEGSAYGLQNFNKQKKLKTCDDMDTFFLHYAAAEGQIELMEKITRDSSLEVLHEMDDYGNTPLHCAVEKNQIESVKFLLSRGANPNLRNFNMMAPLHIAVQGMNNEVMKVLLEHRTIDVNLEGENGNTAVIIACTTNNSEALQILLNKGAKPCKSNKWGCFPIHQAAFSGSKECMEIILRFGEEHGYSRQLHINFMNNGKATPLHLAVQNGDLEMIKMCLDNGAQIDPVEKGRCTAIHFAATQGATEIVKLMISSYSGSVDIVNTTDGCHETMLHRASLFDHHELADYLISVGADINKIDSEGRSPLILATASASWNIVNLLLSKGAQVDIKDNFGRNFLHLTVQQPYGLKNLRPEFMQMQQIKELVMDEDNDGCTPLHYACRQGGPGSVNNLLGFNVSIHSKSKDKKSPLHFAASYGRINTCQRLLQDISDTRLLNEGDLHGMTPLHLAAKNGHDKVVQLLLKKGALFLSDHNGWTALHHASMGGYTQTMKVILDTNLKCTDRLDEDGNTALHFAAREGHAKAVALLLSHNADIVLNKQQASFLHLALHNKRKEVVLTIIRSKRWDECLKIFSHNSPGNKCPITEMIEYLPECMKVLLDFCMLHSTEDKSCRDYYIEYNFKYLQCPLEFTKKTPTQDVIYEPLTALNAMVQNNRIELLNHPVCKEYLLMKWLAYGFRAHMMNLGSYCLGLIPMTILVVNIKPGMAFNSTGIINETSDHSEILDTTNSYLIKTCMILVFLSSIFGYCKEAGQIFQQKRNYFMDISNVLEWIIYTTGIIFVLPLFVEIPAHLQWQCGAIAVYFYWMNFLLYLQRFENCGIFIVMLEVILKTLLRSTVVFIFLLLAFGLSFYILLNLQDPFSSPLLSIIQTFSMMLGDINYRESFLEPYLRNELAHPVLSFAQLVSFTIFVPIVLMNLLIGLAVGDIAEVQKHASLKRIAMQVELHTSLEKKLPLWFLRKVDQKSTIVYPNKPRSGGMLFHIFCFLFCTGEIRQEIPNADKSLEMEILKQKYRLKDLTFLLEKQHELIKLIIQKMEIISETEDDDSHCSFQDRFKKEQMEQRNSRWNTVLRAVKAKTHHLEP

Structure (SMILES): C=CC(=O)CCCCC [1-Octen-3-one]
- activation at 1000 µM (human TRPA1; [1]): 118%
- activation at 1000 µM (human TRPV1; [2]): 63.2%
- A1V1 activation, % of agonist value (TRPA1V1; [3]): 98.9%

Structure (SMILES): CC(=O)C(=O)c1ccccc1 [1-Phenyl-1,2-propanedione]
- activation at 1000 µM (human TRPA1; [1]): 98.6%
- activation at 100 µM (human TRPA1; Table 1(d), 100 μM (*)): 100%
- activation at 1000 µM (human TRPV1; [2]): 66.6%
- A1V1 activation, % of agonist value (TRPA1V1; [3]): 105.5%
- A1V1 activation, % of agonist value (TRPA1V1; [4]): 71.4%

Structure (SMILES): Cc1ccc(C)c(O)c1C [2,3,6-Trimethylphenol]
- activation at 1000 µM (human TRPA1; [1]): 90%
- activation at 1000 µM (human TRPV1; [2]): 74.8%
- A1V1 activation, % of agonist value (TRPA1V1; [3]): 91.4%

Structure (SMILES): CC1=NC(C)OC1C (stereo not shown) [2,4,5-Trimethyl-3-oxazoline]
- activation at 100 µM (human TRPA1; Table 1(i), 100 μM (*), […]): 2.1%
- activation at 100 µM (human TRPV1; [5]): 101%
- TRPV1 activation selectivity, in words (human TRPV1): TRPV1 activators which do not modulate TRPA1 or TRPA1V1
- A1V1 activation, % of agonist value (TRPA1V1; [6]): 4.1%

Structure (SMILES): c1ccc(CCCc2ccccn2)cc1 [2-(3-Phenylpropyl)pyridine]
- activation at 1000 µM (human TRPA1; [1]): 76%
- activation at 1000 µM (human TRPV1; [2]): 21.5%
- A1V1 activation, % of agonist value (TRPA1V1; [3]): 74.53%

Structure (SMILES): O=Cc1cc2ccccc2o1 [2-Benzofurancarboxaldehyde]
- activation at 1000 µM (human TRPA1; [1]): 91%
- activation at 1000 µM (human TRPV1; [2]): 57.6%
- A1V1 activation, % of agonist value (TRPA1V1; [3]): 102.3%

Structure (SMILES): CCCCc1ccco1 [2-Butylfuran]
- activation at 1000 µM (human TRPA1; [1]): 68.5%
- activation at 1000 µM (human TRPV1; [2]): 20.2%
- A1V1 activation, % of agonist value (TRPA1V1; [3]): 62.77%

Structure (SMILES): O=C1CCCC1C1CCCC1 (stereo not shown) [2-Cyclopentylcyclopentanone]
- activation at 1000 µM (human TRPA1; Table 1(b)): 25%
- activation at 1000 µM (human TRPV1; [7]): 24%
- A1V1 activation, % of agonist value (TRPA1V1; [8]): 90.8%

Structure (SMILES): CCc1ccco1 [2-Ethylfuran]
- activation at 100 µM (human TRPA1; Table 1(i), 100 μM (*), […]): 1.2%
- activation at 100 µM (human TRPV1; [5]): 58.7%
- TRPV1 activation selectivity, in words (human TRPV1): TRPV1 activators which do not modulate TRPA1 or TRPA1V1
- A1V1 activation, % of agonist value (TRPA1V1; [6]): 1.8%

Structure (SMILES): Cc1nccnc1SCc1ccco1 [2-Furfurylthio-3-methylpyrazine]
- activation at 100 µM (human TRPA1; Table 1(a), 100 μM (*)): 80.7%
- activation at 100 µM (human TRPV1; [9]): 31.3%
- A1V1 activation, % of agonist value (TRPA1V1; [10]): 80.9%

Structure (SMILES): C=Cc1ccc(O)c(OC)c1 [2-Methoxy-4-vinylphenol]
- activation at 1000 µM (human TRPA1; [1]): 74.8%
- activation at 1000 µM (human TRPV1; [2]): 20.7%
- A1V1 activation, % of agonist value (TRPA1V1; [3]): 81.90%

Structure (SMILES): CCC(C)COC(=O)CC(C)C (stereo not shown) [2-Methylbutyl isovalerate]
- activation at 1000 µM (human TRPA1; Table 1(i), […]): 1.7%
- activation at 1000 µM (human TRPV1; Table 1(i), relative to capsaicin 350 nM, […]): 75.3%
- TRPV1 activation selectivity, in words (human TRPV1): TRPV1 activators which do not modulate TRPA1 or TRPA1V1
- A1V1 activation, % of agonist value (TRPA1V1; Table 1(i), 1 mM, relative to AITC 30 μM or capsaicin 350 nM depending on compound, […]): 2.1%

Structure (SMILES): Sc1ccc2ccccc2c1 [2-Napthlaenthiol]
- A1 activation, % of agonist value (human TRPA1; Table 1(a), 100 μM (*)): 66.3%
- V1 activation, % of agonist value (human TRPV1; [9]): 120.3%
- A1V1 activation, % of agonist value (TRPA1V1; [10]): 85.2%

Structure (SMILES): CCCc1ccccc1O [2-Propylphenol]
- activation at 1000 µM (human TRPA1; [1]): 126%
- activation at 1000 µM (human TRPV1; [2]): 96.9%
- A1V1 activation, % of agonist value (TRPA1V1; [3]): 183.8%

Structure (SMILES): CC(CC=O)CC(C)(C)C (stereo not shown) [3,5,5-Trimethylhexanal]
- activation at 1000 µM (human TRPA1; Table 1(b)): 133%
- activation at 1000 µM (human TRPV1; [7]): 217%
- A1V1 activation, % of agonist value (TRPA1V1; [8]): 114.7%

Structure (SMILES): CCC(S)C(C)=O (stereo not shown) [3-Mercapto-2-pentanone]
- activation at 1000 µM (human TRPA1; [1]): 92%
- activation at 100 µM (human TRPA1; Table 1(c), 100 μM (*)): 103%
- activation at 1000 µM (human TRPV1; [2]): 59.2%
- A1V1 activation, % of agonist value (TRPA1V1; [3]): 72.6%
- A1V1 activation, % of agonist value (TRPA1V1; Table 1(c), 100 μM (*), relative to AITC 30 μM): 100%

Structure (SMILES): CC(=O)C(C)S (stereo not shown) [3-Mercaptobutanone, 3-Mercapto-2-butanone]
- activation at 1000 µM (human TRPA1; Table 1(b)): 50.4%
- activation at 100 µM (human TRPA1; Table 1(d), 100 μM (*)): 68.9%
- activation at 1000 µM (human TRPV1; [7]): 63.8%
- A1V1 activation, % of agonist value (TRPA1V1; [8]): 80.9%
- A1V1 activation, % of agonist value (TRPA1V1; [4]): 53.3%

Structure (SMILES): CC(C)C(C=O)c1ccccc1 (stereo not shown) [3-Methyl-2-Phenylbutyraldehyde]
- activation at 1000 µM (human TRPA1; [1]): 90.6%
- activation at 1000 µM (human TRPV1; [2]): 75.8%
- A1V1 activation, % of agonist value (TRPA1V1; [3]): 93.08%

Structure (SMILES): CCCC1CC(=O)C=C(C)C1 (stereo not shown) [3-Methyl-5-propyl-2-cyclohexen-1-one]
- activation at 1000 µM (human TRPA1; Table 1(b)): 69%
- activation at 1000 µM (human TRPV1; [7]): 59.2%
- A1V1 activation, % of agonist value (TRPA1V1; [8]): 101.0%

Structure (SMILES): CCCCC=CC(C)=O [3-Octen-2-one]
- activation at 1000 µM (human TRPA1; [1]): 52.7%
- activation at 1000 µM (human TRPV1; [2]): 30%
- A1V1 activation, % of agonist value (TRPA1V1; [3]): 45.60%

Structure (SMILES): OCCCc1ccccc1 [3-Phenylpropanol]
- activation at 1000 µM (human TRPA1; Table 1(b)): 51.4%
- activation at 1000 µM (human TRPV1; [7]): 32%
- A1V1 activation, % of agonist value (TRPA1V1; [8]): 64.94%

Structure (SMILES): CCCCC(=O)C(CCC)Sc1ccoc1C (stereo not shown) [4-(2-Methyl-3-furylthio)-5-nonanone]
- activation at 100 µM (human TRPA1; Table 1(d), 100 μM (*)): 52.5%
- activation at 1000 µM (human TRPV1; Table 1(g), relative to capsaicin 350 nM): 40.6%
- A1V1 activation, % of agonist value (TRPA1V1; [4]): 34.1%
- A1V1 activation, % of agonist value (TRPA1V1; Table 1(g), 1 mM, relative to capsaicin 350 nM): 64%
